Assays:
Assay type in all cases: in vivo
Lolium perenne (LOLPE) [1] = assay: Example B pre-emergence herbicidal test, LOLPE; settings: Lolium perenne, 312 h, rate 250 g/ha, evaluated after 13 days, 100=total damage to plant, 0=no damage to plant
Procedure: (§1) Seeds of a variety of test species were sown in standard soil in pots. After cultivation for one day (pre-emergence) or after 8 days cultivation (post-emergence) under controlled conditions in a glasshouse (at 24/16° C., day/night; 14 hours light; 65% humidity), the plants were sprayed with an aqueous spray solution derived from the formulation of the technical active ingredient in acetone/water (50:50) solution containing 0.5% Tween 20 (polyoxyethelyene sorbitan monolaurate, CAS RN 9005-64-5). The test plants were then grown in a glasshouse under controlled conditions in a glasshouse (at 24/16° C., day/night; 14 hours light; 65% humidity) and watered twice daily. After 13 days for pre and post-emergence, the test was evaluated (100=total damage to plant; 0=no damage to plant). Lolium perenne (LOLPE), Alopecurus myosuroides (ALOMY), Echinochloa crus-galli (ECHCG), Avena fatua (AVEFA) Pre-Emergence Activity

[2] = test system: Alopecurus myosuroides (ALOMY); assay: Example B pre-emergence herbicidal test, ALOMY; settings: Alopecurus myosuroides, 312 h, rate 250 g/ha, evaluated after 13 days, 100=total damage to plant, 0=no damage to plant
Procedure: as §1

[3] = test system: Echinochloa crus-galli (ECHCG); assay: Example B pre-emergence herbicidal test, ECHCG; settings: Echinochloa crus-galli, 312 h, rate 250 g/ha, evaluated after 13 days, 100=total damage to plant, 0=no damage to plant
Procedure: as §1

Avena fatua (AVEFA) [4] = assay: Example B pre-emergence herbicidal test, AVEFA; settings: Avena fatua, 312 h, rate 250 g/ha, evaluated after 13 days, 100=total damage to plant, 0=no damage to plant
Procedure: as §1

Lolium perenne (LOLPE) [5] = assay: Example B post-emergence herbicidal test, LOLPE; settings: Lolium perenne, 312 h, rate 250 g/ha, evaluated after 13 days, scale 0-100, read-out: Post-emergence activity LOLPE (100=total damage to plant; 0=no damage to plant)
Procedure: as §1, with “Post-Emergence” for “Pre-Emergence”

[6] = test system: Alopecurus myosuroides (ALOMY); assay: Example B post-emergence herbicidal test, ALOMY; settings: Alopecurus myosuroides, 312 h, rate 250 g/ha, evaluated after 13 days, scale 0-100, read-out: Post-emergence activity ALOMY (100=total damage to plant; 0=no damage to plant)
Procedure: as §1, with “Post-Emergence” for “Pre-Emergence”

[7] = test system: Echinochloa crus-galli (ECHCG); assay: Example B post-emergence herbicidal test, ECHCG; settings: Echinochloa crus-galli, 312 h, rate 250 g/ha, evaluated after 13 days, scale 0-100, read-out: Post-emergence activity ECHCG (100=total damage to plant; 0=no damage to plant)
Procedure: as §1, with “Post-Emergence” for “Pre-Emergence”

Avena fatua (AVEFA) [8] = assay: Example B post-emergence herbicidal test, AVEFA; settings: Avena fatua, 312 h, rate 250 g/ha, evaluated after 13 days, scale 0-100, read-out: Post-emergence activity AVEFA (100=total damage to plant; 0=no damage to plant)
Procedure: as §1, with “Post-Emergence” for “Pre-Emergence”

Compound	pest or weed control at 250 g/ha (Lolium perenne (LOLPE) [1]) [%]	pest or weed control at 250 g/ha [2] [%]	pest or weed control at 250 g/ha [3] [%]	pest or weed control at 250 g/ha (Avena fatua (AVEFA) [4]) [%]	pest or weed control at 250 g/ha (Lolium perenne (LOLPE) [5]) [%]	pest or weed control at 250 g/ha [6] [%]	pest or weed control at 250 g/ha [7] [%]	pest or weed control at 250 g/ha (Avena fatua (AVEFA) [8]) [%]
COc1ccc(CC2C(=O)C(c3c(C)cc(C)cc3C)C(=O)C2CC2CCOC2)cc1 (stereo not drawn) [Compound T149]	20	30	30	10	40	30	20	40
CC(=O)N1CCC(CC2CC(=O)C(c3c(C)cc(C)cc3C)C2=O)CC1 (stereo not drawn) [Compound T24]	100	100	100	90	100	90	100	100
CCS(=O)(=O)OC1=C(c2c(C)cc(C)cc2C)C(=O)C(CC2CCOC2)C1 (stereo not drawn) [Compound P27]	100	100	80	80	100	80	90	80
Cc1cc(C)c(C2C(=O)CC(CC3CCN(C(=O)c4c(C)noc4C)C3)C2=O)c(C)c1 (stereo not drawn) [Compound T148]	50	70	30	40	70	80	60	100
Cc1cc(C)c(C2C(=O)CC(CC3CCN(S(=O)(=O)C(C)C)CC3)C2=O)c(C)c1 (stereo not drawn) [Compound T93]	90	60	90	60	70	60	60	70
CCOC(=O)N1CCC(CC2CC(=O)C(c3c(C)cc(C)cc3C)C2=O)CC1 (stereo not drawn) [Compound T108]	50	10	60	40	70	70	40	70
Cc1cc(C)c(C2C(=O)CC(CC3OCCO3)C2=O)c(C)c1 (stereo not drawn) [Compound T130]	100	70	30	10	90	60	60	70
Cc1cc(C)c(C2=C(OC(=O)OC(C)(C)C)C/C(=C\C3CCN(C(=O)OC(C)(C)C)CC3)C2=O)c(C)c1 [Compound P53]	100	60	90	70	20	60	70	40
Cc1cc(C)c(C2C(=O)C/C(=C\C3CCN(C(=O)c4ccccc4)C3)C2=O)c(C)c1 (stereo not drawn) [Compound T34]	90	70	100	70	90	90	100	100

Reference: US9096560B2, “5-heterocyclylalkyl-3-hydroxy-2-phenylcyclopent-2-enones as herbicides” (Syngenta Limited, priority 2008, dated 2015)
